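Grown in 96-well plates, cells were treated for 48 hours with each compound at five concentrations. Insufficient inhibition: endpoint recorded as highest concentration tested. Here, GI50 denotes the concentration required for 50% inhibition of growth. At the TGI there is no net growth.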
How the values were obtained:
Assay in all cases: inhibition of tumour cell growth, NCI panel, 48 h
HS 578T breast = tested on: HS 578T breast
MDA-MB-435 = tested on: MDA-MB-435
T-47D breast = tested on: T-47D breast
MDA-MB-231 breast = tested on: MDA-MB-231 breast
U251 CNS = tested on: U251 CNS
HT29 colon = tested on: HT29 colon
UO-31 renal = tested on: UO-31 renal
DU-145 prostate = tested on: DU-145 prostate
OVCAR-3 ovarian = tested on: OVCAR-3 ovarian
A549 NSCLC = tested on: A549 NSCLC

## COc1cc(C(=O)Nc2ccc(-c3nc4ccccc4[nH]3)cc2)cc(OC)c1OC
HS 578T breast
  GI50: 3.54 µM
  TGI: 19.3 µM
MDA-MB-435
  GI50: 13.5 µM
  TGI: 31 µM
T-47D breast
  GI50: 5.39 µM
  TGI: 23.4 µM
MDA-MB-231 breast
  GI50: 9.38 µM
  TGI: 24 µM
U251 CNS
  GI50: 10.2 µM
  TGI: 23.4 µM
HT29 colon
  GI50: 5.95 µM
  TGI: 19.6 µM
UO-31 renal
  GI50: 3.92 µM
  TGI: 16.1 µM
DU-145 prostate
  GI50: 11.2 µM
  TGI: 25.3 µM
OVCAR-3 ovarian
  GI50: 12.4 µM
  TGI: 27.9 µM
A549 NSCLC
  GI50: 11.2 µM
  TGI: 27.8 µM

## COc1cc2c(cc1OC)C(Sc1ccc(Cl)cc1)c1c(nc(N)c(C#N)c1N)O2 (stereo not given)
HS 578T breast
  GI50: 1.98 µM
  TGI: 6.43 µM
MDA-MB-435
  GI50: 1.42 µM
  TGI: 2.85 µM
T-47D breast
  GI50: 1.29 µM
  TGI: 3.65 µM
MDA-MB-231 breast
  GI50: 1.37 µM
  TGI: 2.76 µM
U251 CNS
  GI50: 0.916 µM
  TGI: 2.14 µM
HT29 colon
  GI50: 1.88 µM
  TGI: 4.12 µM
UO-31 renal
  GI50: 1.21 µM
  TGI: 2.46 µM
DU-145 prostate
  GI50: 1.67 µM
  TGI: 3.05 µM
OVCAR-3 ovarian
  GI50: 1.27 µM
  TGI: 2.56 µM
A549 NSCLC
  GI50: 1.75 µM
  TGI: 3.36 µM

## COC(=O)c1sc(=S)c2sc(C(=O)OC)c(C(=O)OC)c2c1C(=O)OC
HS 578T breast
  GI50: 46.5 µM
  TGI: > 100 µM
MDA-MB-435
  GI50: 51.3 µM
  TGI: > 100 µM
T-47D breast
  GI50: 77.7 µM
  TGI: > 100 µM
MDA-MB-231 breast
  GI50: 36.3 µM
  TGI: > 100 µM
U251 CNS
  GI50: 50.5 µM
  TGI: > 100 µM
HT29 colon
  GI50: 72.6 µM
  TGI: > 100 µM
UO-31 renal
  GI50: 68.5 µM
  TGI: > 100 µM
DU-145 prostate
  GI50: 71.1 µM
  TGI: > 100 µM
OVCAR-3 ovarian
  GI50: 35.5 µM
  TGI: > 100 µM
A549 NSCLC
  GI50: 51.2 µM
  TGI: > 100 µM

## COc1ccccc1CNCCCN1C(=O)c2ccc3c4c(ccc(c24)C1=O)C(=O)N(CCCNCCCCN)C3=O
HS 578T breast
  GI50: 1.14 µM
  TGI: 5.91 µM
MDA-MB-435
  GI50: 0.184 µM
  TGI: 0.397 µM
T-47D breast
  GI50: 0.573 µM
  TGI: 2.4 µM
MDA-MB-231 breast
  GI50: 0.236 µM
  TGI: 2.78 µM
U251 CNS
  GI50: 0.206 µM
  TGI: 0.731 µM
HT29 colon
  GI50: 0.206 µM
  TGI: 0.695 µM
UO-31 renal
  GI50: 1.95 µM
  TGI: 9.92 µM
DU-145 prostate
  GI50: 0.664 µM
  TGI: 2.35 µM
OVCAR-3 ovarian
  GI50: 0.304 µM
  TGI: 0.81 µM
A549 NSCLC
  GI50: 0.29 µM
  TGI: 1.06 µM

## COc1cc(/C=C/C(=O)/C=C/c2ccc(-n3ccnc3)cc2)ccc1O
HS 578T breast
  GI50: 2.91 µM
  TGI: > 100 µM
MDA-MB-435
  GI50: 2.21 µM
  TGI: 5.14 µM
T-47D breast
  GI50: 2.98 µM
  TGI: 9.92 µM
MDA-MB-231 breast
  GI50: 3.47 µM
  TGI: 13 µM
U251 CNS
  GI50: 2.21 µM
  TGI: 5.24 µM
HT29 colon
  GI50: 1.97 µM
  TGI: 3.88 µM
UO-31 renal
  GI50: 1.51 µM
  TGI: 3.15 µM
DU-145 prostate
  GI50: 3.36 µM
  TGI: 10.1 µM
OVCAR-3 ovarian
  GI50: 3.14 µM
  TGI: 10 µM
A549 NSCLC
  GI50: 3.19 µM
  TGI: 15.6 µM

## COc1ccc([C@H]2c3[nH]c4ccccc4c3C[C@H]3C(=O)N(CCCCCCC(=O)NO)CC(=O)N23)cc1
HS 578T breast
  GI50: 1.34 µM
  TGI: > 33.3 µM
MDA-MB-435
  GI50: 3.32 µM
  TGI: 15.1 µM
T-47D breast
  GI50: 0.952 µM
  TGI: 25.6 µM
MDA-MB-231 breast
  GI50: 2.27 µM
  TGI: > 33.3 µM
U251 CNS
  GI50: 1.61 µM
  TGI: > 33.3 µM
HT29 colon
  GI50: 3.73 µM
  TGI: > 33.3 µM
UO-31 renal
  GI50: 1.47 µM
  TGI: > 33.3 µM
DU-145 prostate
  GI50: 1.83 µM
  TGI: > 33.3 µM
OVCAR-3 ovarian
  GI50: 1.88 µM
  TGI: 17.4 µM
A549 NSCLC
  GI50: 5.28 µM
  TGI: > 33.3 µM

## COc1cc(OC)c(OC)cc1/C=C\c1ccnc2ccccc12
HS 578T breast
  TGI: 1.15 µM
MDA-MB-435
  TGI: 0.534 µM
T-47D breast
  TGI: > 100 µM
MDA-MB-231 breast
  TGI: 28.8 µM
U251 CNS
  TGI: 16.5 µM
HT29 colon
  TGI: 16.1 µM
UO-31 renal
  TGI: > 80.6 µM
DU-145 prostate
  TGI: > 100 µM
OVCAR-3 ovarian
  TGI: 7.44 µM
A549 NSCLC
  TGI: > 72.6 µM
